Test results published in patent US11261175B2 (priority 2017, dated 2022).

Legend:
Format in all cases: cell-based
[1] = test system: HCV genotype 1b replicon with NS5A L31V mutation; experiment: Transiently transfected assay of genotype 1b resistance mutant RNA L31V; details: Hepatitis C virus, Huh-7.5.1, 72 h, read-out: HCV Mutation L31V
How it was run: (§1)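 Huh7.5.1 cells were electroporated with in vitro-transcribed, ScaI-linearized replicon RNAs carrying the Daclatasvir-resistance substitutions, then seeded 4 h later into DMEM with serially diluted compound. After 3 days, intracellular luciferase activity was read and normalized to mock-treated cells.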

[2] = test system: HCV replicon NK5.1-Gluc (genotype 1b); experiment: Anti-HCV activity using HCV replicon NK5.1-Gluc (genotype 1b) in Huh 7.5.1 cells, luciferase readout; details: Hepatitis C virus, 72 h; Huh 7.5.1 cells with NK5.1-Gluc replicon, 3 days, Gaussia luciferase; read-out: HCV wt. GT-1b
[3] = test system: JFH5a-Rluc-ad34 virus (HCV GT-2a); experiment: Anti-HCV activity using HCVcc (JFH5a-Rluc-ad34 virus) in Huh 7.5.1 cells, Renilla luciferase readout; details: Hepatitis C virus, GT2A, Huh-7.5.1, 72 h, read-out: HCV wt. GT-2a
How it was run: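 Huh 7.5.1 cells were inoculated with JFH5a-Rluc-ad34, a JFH1-derived virus with adaptive E2/p7 mutations, for 4 h before serially diluted compound was added. Intracellular Renilla luciferase was read after three days and normalized to mock-treated controls.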

[4] = test system: HCV genotype 1b replicon with NS5A Y93H mutation; experiment: Transiently transfected assay of genotype 1b resistance mutant RNA Y93H; details: Hepatitis C virus, Huh-7.5.1, 72 h, read-out: HCV Mutation Y93H
How it was run: as §1

[5] = test system: HCV replicon S52-Feo (genotype 3a); experiment: Anti-HCV activity using HCV replicon S52-Feo (genotype 3a) in Huh 7.5.1 cells, luciferase readout; details: Hepatitis C virus, 72 h; Huh 7.5.1 cells with S52-Feo replicon, 3 days, firefly luciferase; read-out: HCV wt. GT-3a
[6] = test system: HCV genotype 1b replicon with NS5A L31V+Y93H (double mutant); experiment: Transiently transfected assay of genotype 1b resistance mutant RNA L31V+Y93H (double mutant); details: Hepatitis C virus, Huh-7.5.1, 72 h, read-out: HCV Mutation L31V + Y93H
How it was run: as §1

Compound | EC50 [1] | EC50 [2] | EC50 [3] | EC50 [4] | EC50 [5] | EC50 [6]
CCCCC1(CCCC)c2cc(NC(=O)[C@@H]3CCCN3C(=O)[C@H](NC(=O)OC)c3ccccc3)ccc2-c2ccc(NC(=O)[C@@H]3CC4(CN3C(=O)[C@H](NC(=O)OC)c3ccccc3)OCCO4)cc21 [Example 16, methyl ((R)-2-((S)-8-((9,9-dibutyl-7-((S)-1-((R)-2-((methoxycarbonyl)amino)-2-phenylacetyl)pyrrolidine-2-carboxyamido)-9H-fluorene-2-yl)carbamoyl)-1,4-dioxa-7-azaspiro[4.4]nonane-7-yl)-2-oxo-1-phenylethyl)carbamate] | 0.001 to 0.01 nM | 0.001 to 0.01 nM | 1 to 100 nM | 0.01 to 0.1 nM | 0.01 to 0.1 nM | 1 to 100 nM
CCCCC1(CCCC)c2cc(NC(=O)[C@@H]3CCCN3C(=O)[C@H](NC(=O)OC)c3ccccc3)ccc2-c2ccc(-c3cnc([C@@H]4C[C@H](COC)CN4C(=O)[C@@H](NC(=O)OC)C(C)C)[nH]3)cc21 [Example 41, methyl ((S)-1-((2S,4S)-2-(5-(9,9-dibutyl-7-((S)-1-((R)-2-((methoxycarbonyl)amino)-2-phenylacetyl)pyrrolidine-2-carboxyamido)-9H-fluorene-2-yl)-1H-imidazole-2-yl)-4-(methoxymethyl)pyrrolidine-1-yl)-3-methyl-1-oxobutane-2-yl)carbamate] | 0.001 to 0.01 nM | 0.01 to 0.1 nM | 0.01 to 0.1 nM | 0.01 to 0.1 nM | 0.1 to 1 nM | 1 to 100 nM
CCCCC1(CCCC)c2cc(NC(=O)[C@@H]3CCCN3C(=O)[C@H](NC(=O)OC)c3ccccc3)ccc2-c2ccc(NC(=O)[C@@H]3CCCN3C(=O)[C@H](NC(=O)OC)c3ccccc3)cc21 [Example 2, dimethyl ((1R,1′R)-((2S,2′S)-(((9,9-dibutyl-9H-fluorene-2,7-diyl)bis(azanediyl))bis(carbonyl))bis(pyrrolidine-2,1-diyl))bis(2-oxo-1-phenylethane-2,1-diyl))dicarbamate] | 0.001 to 0.01 nM | 0.001 to 0.01 nM | 1 to 100 nM | 0.1 to 1 nM | 0.01 to 0.1 nM | 1 to 100 nM
CCCCC1(CCCC)c2cc(NC(=O)[C@@H]3C[C@@H](O)CN3C(=O)[C@H](NC(=O)OC)c3ccccc3)ccc2-c2ccc(NC(=O)[C@@H]3C[C@@H](O)CN3C(=O)[C@H](NC(=O)OC)c3ccccc3)cc21 [Example 29, dimethyl ((1R,1′R)-((3R,3′R,5S,5′S)-(((9,9-dibutyl-9H-fluorene-2,7-diyl)bis(azanediyl))bis(carbonyl))bis(3-hydroxypyrrolidine-5,1-diyl))bis(2-oxo-1-phenylethane-2,1-diyl))dicarbamate] | 0.01 to 0.1 nM | 0.001 to 0.01 nM | 0.1 to 1 nM | 0.01 to 0.1 nM | 0.01 to 0.1 nM | 0.01 to 0.1 nM
CCCCC1(CCCC)c2cc(NC(=O)[C@@H]3CC4(CN3C(=O)[C@H](NC(=O)OC)c3ccccc3)OCCO4)ccc2-c2ccc(-c3cnc([C@@H]4CCCN4C(=O)[C@@H](NC(=O)OC)C(C)C)[nH]3)cc21 [Example 14, methyl ((S)-1-((S)-2-(5-(9,9-dibutyl-7-((S)-7-((R)-2-((methoxycarbonyl)amino)-2-phenylacetyl)-1,4-dioxa-7-azaspiro[4.4]nonane-8-carboxyamido)-9H-fluorene-2-yl)-1H-imidazole-2-yl)pyrrolidine-1-yl)-3-methyl-1-oxobutane-2-yl)carbamate] | 0.001 to 0.01 nM | 0.001 to 0.01 nM | 0.01 to 0.1 nM | 0.001 to 0.01 nM | 0.01 to 0.1 nM | 1 to 100 nM
CCCCCC1(CCCCC)c2cc(NC(=O)[C@@H]3CC(=O)CN3C(=O)[C@H](NC(=O)OC)c3ccccc3)ccc2-c2ccc(NC(=O)[C@@H]3CC(=O)CN3C(=O)[C@H](NC(=O)OC)c3ccccc3)cc21 [Example 17, dimethyl ((1R,1′R)-((5S,5′S)-(((9,9-dipentyl-9H-fluorene-2,7-diyl)bis(azanediyl))bis(carbonyl))bis(3-oxopyrrolidine-5,1-diyl))bis(2-oxo-1-phenylethane-2,1-diyl))dicarbamate] | 0.001 to 0.01 nM | 0.001 to 0.01 nM | 1 to 100 nM | 0.1 to 1 nM | 0.01 to 0.1 nM | 1 to 100 nM
CCCCC1(CCCC)c2cc(NC(=O)[C@@H]3CCCN3C(=O)[C@H](NC(=O)OC)c3ccccc3)ccc2-c2ccc(NC(=O)[C@@H]3CC(=O)CN3C(=O)[C@H](NC(=O)OC)c3ccccc3)cc21 [Example 10, methyl ((R)-2-((S)-2-((9,9-dibutyl-7-((S)-1-((R)-2-((methoxycarbonyl)amino)-2-phenylacetyl)pyrrolidine-2-carboxyamido)-9H-fluorene-2-yl)carbamoyl)-4-oxopyrrolidine-1-yl)-2-oxo-1-phenylethyl)carbamate] | 0.001 to 0.01 nM | 0.001 to 0.01 nM | 0.1 to 1 nM | 0.1 to 1 nM | 0.01 to 0.1 nM | 1 to 100 nM
CCCCC1(CCCC)c2cc(NC(=O)[C@@H]3C[C@H](COC)CN3C(=O)[C@H](NC(=O)OC)c3ccccc3)ccc2-c2ccc(-c3cnc([C@@H]4CCCN4C(=O)[C@@H](NC(=O)OC)C(C)C)[nH]3)cc21 [Example 42, methyl ((S)-1-((S)-2-(5-(9,9-dibutyl-7-((2S,4S)-1-((R)-2-((methoxycarbonyl)amino)-2-phenylacetyl)-4-(methoxymethyl)pyrrolidine-2-carboxyamido)-9H-fluorene-2-yl)-1H-imidazole-2-yl)pyrrolidine-1-yl)-3-methyl-1-oxobutane-2-yl)carbamate] | 0.001 to 0.01 nM | 0.01 to 0.1 nM | 0.1 to 1 nM | 0.01 to 0.1 nM | 0.1 to 1 nM | 1 to 100 nM
